Data reported in patent US5736546A, “1,4-(diphenlyalkyl) piperazine derivatives” (Santen Pharmaceutical Co., Ltd., priority 1993, dated 1998).
Counter-ions that a name gives are not always drawn.

Legend:
μ receptors = μ receptors (Rattus norvegicus, UniProt P33535)
[1] = test system: amount of acetylcholine in rat brain; assay: Increasing effects on the amount of intracerebral acetylcholine (intracerebral microdialysis method); assay type: in vivo, male Wistar rat; settings: oral, 30 minutes after administration, averages of 3-7 samples
Protocol: (The New England Journal of Medicine, 315, 1241-1245 (1986)), the amount of acetylcholine in rat brain was then measured according to the report of Matsuno et al. (Brain Research, 575, 315-319 (1992)). […] 2. […] (The New England Journal of Medicine, 315, 1241-1245 (1986)), an experiment was performed to examine effects of the compounds of this invention on the amount of acetylcholine in rat brain. (Experimental Method) The amount of acetylcholine in rat brain was measured by the following method using intracerebral microdialysis method according to the report of Matsuno et al. (Brain Research, 575, 315-319 (1992)). […] The amount of acetylcholine in rat brain was measured with time. When it became constant, the test compound suspended in 1% methylcellulose solution was administered orally to the rat, and the amount of intracerebral acetylcholine was measured. The amount of acetylcholine in rat brain (average of six samples) to which the test compound was not administered was used as a control.

sigma receptors [2] = molecular target: T1, sigma receptors (Cavia porcellus, UniProt Q60492); assay: Experiment using [3H](+)-PTZ as a labeled ligand (affinity for sigma receptors); design: species or system Hartley guinea pig; settings: [3H](+)-PTZ 5 nM; guinea pig brain membrane; 37° C., 150 minutes; averages of 4-11 samples; read-out: IC50 (inhibition of specific binding of [3H](+)-PTZ)
T1 construct: A brain of a Hartley guinea pig (weight: 300-400 g) was excised; from tissue; host or cells: Hartley guinea pig brain, membrane preparation

sigma receptors [3] = molecular target: T1, sigma receptors; assay: biochemical; design: species or system Hartley guinea pig; settings: read-out: IC50 (inhibition of specific binding of [3H](+)-SKF-10047)

T1 sequence (Q60492 whole entry): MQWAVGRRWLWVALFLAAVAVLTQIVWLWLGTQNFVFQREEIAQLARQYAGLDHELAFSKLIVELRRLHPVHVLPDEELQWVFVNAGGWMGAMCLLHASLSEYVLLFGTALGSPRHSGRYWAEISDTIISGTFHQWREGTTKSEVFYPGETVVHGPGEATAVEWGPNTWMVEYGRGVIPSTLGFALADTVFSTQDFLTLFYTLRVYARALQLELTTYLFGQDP
μ receptors, sequence (P33535 whole entry): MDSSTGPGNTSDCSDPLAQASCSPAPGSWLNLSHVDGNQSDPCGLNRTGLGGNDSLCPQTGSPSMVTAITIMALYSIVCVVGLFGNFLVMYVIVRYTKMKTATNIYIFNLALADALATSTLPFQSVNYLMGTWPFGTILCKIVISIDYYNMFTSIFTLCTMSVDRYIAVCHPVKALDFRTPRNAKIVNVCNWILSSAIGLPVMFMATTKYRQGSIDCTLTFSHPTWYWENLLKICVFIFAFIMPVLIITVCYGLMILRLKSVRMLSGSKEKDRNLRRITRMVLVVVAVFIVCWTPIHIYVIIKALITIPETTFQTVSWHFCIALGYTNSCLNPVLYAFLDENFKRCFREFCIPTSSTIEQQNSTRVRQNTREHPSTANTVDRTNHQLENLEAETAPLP

| IC50 (μ receptors) [µM] | IC50 (sigma receptors [2]) [µM] | IC50 (sigma receptors [3]) [µM] | IC50 (sigma receptors [3]; [3H](+)-SKF-10047 5 nM, guinea pig brain membrane, 25° C., 30 minutes) [µM] | Structure (SMILES) | amount of acetylcholine (% control) ([1]; 10 mg/kg) | amount of acetylcholine (% control) ([1]; 20 mg/kg) | amount of acetylcholine (% control) ([1]; 40 mg/kg) | amount of acetylcholine (% control) ([1]; 80 mg/kg) |
| --- | --- | --- | --- | --- | --- | --- | --- | --- |
| > 10 | 0.018 | 0.00932 |  | COc1ccc(CCN2CCN(CCc3ccccc3)CC2)cc1OC [compound No. 1-2, 1-[2-(3,4-Dimethoxyphenyl)ethyl]-4-(2-phenylethyl)piperazine dihydrochloride] |  |  |  |  |
| > 10 |  |  | 0.00428 | COc1ccc(CCN2CCN(Cc3ccccc3)CC2)cc1OC [compound No. 1-3, 1-[2-(3,4-Dimethoxyphenyl)ethyl]-4-benzylpiperazine dihydrochloride] |  |  |  |  |
|  | 0.0107 |  |  | COc1ccc(CCN2CCN(CCCCc3ccccc3)CC2)cc1OC.Cl.Cl [compound No. 1-4, 1-[2-(3,4-Dimethoxyphenyl)ethyl]-4-(4-phenylbutyl)piperazine dihydrochloride] |  |  | 146.2 | 164.9 |
|  | 0.0149 |  |  | COc1ccc(CCCN2CCN(CCCc3ccccc3)CC2)cc1OC.Cl.Cl [compound No. 1-6, 1-[3-(3,4-Dimethoxyphenyl)propyl]-4-(3-phenylpropyl)piperazine dihydrochloride] |  | 146.1 | 176.9 |  |

| Structure (SMILES) | IC50 (μ receptors) [µM] | IC50 (sigma receptors [2]) [µM] | IC50 (sigma receptors [3]) [µM] | IC50 (sigma receptors [3]; [3H](+)-SKF-10047 5 nM, guinea pig brain membrane, 25° C., 30 minutes) [µM] | amount of acetylcholine (% control) ([1]; 10 mg/kg) | amount of acetylcholine (% control) ([1]; 20 mg/kg) | amount of acetylcholine (% control) ([1]; 40 mg/kg) | amount of acetylcholine (% control) ([1]; 80 mg/kg) |
| --- | --- | --- | --- | --- | --- | --- | --- | --- |
| COc1ccc(CCN2CCN(CCCc3ccccc3)CC2)cc1OC.Cl.Cl [compound No. 1-1, 1-[2-(3,4-Dimethoxyphenyl)ethyl]-4-(3-phenylpropyl)piperazine dihydrochloride] | > 10 |  |  |  | 154.3 | 170.0 |  |  |
